Results taken from patent publication EP4603105A1, “PHARMACEUTICAL COMPOSITION CONTAINING CYCLIC COMPOUND HAVING SELECTIVE KRAS INHIBITORY EFFECT AGAINST HRAS AND NRAS” (CHUGAI SEIYAKU KABUSHIKI KAISHA, priority 2022, dated 2024).
Read-outs that look alike come from different tables or passages of the source.

Legend:
[1] = biological target: GDP-bound NRAS wild-type protein (Homo sapiens, UniProt P01111); experiment: Binding to NRAS by surface plasmon resonance (SPR), KD and KD ratio to KRAS; conditions: ratio of KD for GDP-bound NRAS wild-type protein to KD for KRAS
Outline: (§1)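 Each cycle, GDP-bound biotin-Avi RAS was captured (~100–300 RU), compound concentrations were injected low to high for 75 s each at 100 µL/min, then the chip was regenerated. Buffer: HBS pH 7.4, 10 mM MgCl2, 10 µM GDP, 1 mM DTT, 4% DMSO; 30°C. KD from a 1:1 binding model.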

[2] = biological target: HRAS wild-type protein (Homo sapiens, UniProt P01112); experiment: Binding to HRAS by surface plasmon resonance (SPR), KD and KD ratio to KRAS; conditions: ratio of KD for HRAS wild-type protein to KD for KRAS
Outline: as §1

[3] = system: human lung cancer strain NCI-H441; assay type: cell-based
Outline: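 Signal came from […] measured per well once the reagent was added. Beforehand, cells were cultured at 37°C and 5% carbon dioxide on a compound series serially diluted in dimethyl sulfoxide.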

[4] = NCI-H441 cells, 4 days, CellTiter-Glo, read-out: NCl-H441 IC50

Sequence of HRAS wild-type protein (P01112 whole entry): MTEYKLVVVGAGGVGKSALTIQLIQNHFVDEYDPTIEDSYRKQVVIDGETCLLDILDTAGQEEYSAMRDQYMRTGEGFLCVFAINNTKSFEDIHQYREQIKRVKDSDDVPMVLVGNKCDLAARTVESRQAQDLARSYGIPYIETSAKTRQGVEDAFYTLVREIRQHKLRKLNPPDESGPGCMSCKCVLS
Sequence of GDP-bound NRAS wild-type protein (P01111 whole entry): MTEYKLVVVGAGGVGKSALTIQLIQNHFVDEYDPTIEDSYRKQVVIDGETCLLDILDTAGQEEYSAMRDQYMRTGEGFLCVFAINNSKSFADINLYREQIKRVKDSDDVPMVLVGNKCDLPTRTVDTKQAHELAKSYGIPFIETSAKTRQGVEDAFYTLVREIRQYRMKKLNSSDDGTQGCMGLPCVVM

| Compound | NRAS /KRAS [1] | HRAS /KRAS [2] | IC50 [3] [nM] | IC50 [3, 4] [nM] |
| --- | --- | --- | --- | --- |
| CCO[C@@H]1C[C@H]2C(=O)NC3(CC(C)(C)C3)C(=O)N(C)[C@@H](C3CCCC3)C(=O)N(C)[C@H](C(=O)N(C)C)CC(=O)N(C)[C@@H](CC(C)C)C(=O)N[C@@H]([C@@H](C)CC)C(=O)N(C)CC(=O)N(C)[C@H]3C/C=C\CCN(C3=O)[C@@H](Cc3ccc(C(C)=O)cc3)C(=O)N(C)CC(=O)N[C@@H](CCc3ccc(C(F)(F)F)c(OC)c3)C(=O)N2C1 [PP2694] | A (a compound having 10 or more and less than 20 is denoted as A) | B (a compound having 3 or more and less than 10 is denoted as B) | 12 | – |
| CCO[C@@H]1C[C@H]2C(=O)NC3(CC(C)(C)C3)C(=O)N(C)[C@@H](C3CCCC3)C(=O)N(C)[C@H](C(=O)N(C)C)CC(=O)N(C)[C@@H](CC(C)C)C(=O)N[C@@H]([C@@H](C)CC)C(=O)N(C)CC(=O)N(C)[C@H]3C/C=C\CCN(C3=O)[C@@H](Cc3ccc4c(c3)CCC4(F)F)C(=O)N(C)CC(=O)N[C@@H](CCc3ccc(C(F)(F)F)c(OC)c3)C(=O)N2C1 [PP2695] | A (a compound having 10 or more and less than 20 is denoted as A) | B (a compound having 3 or more and less than 10 is denoted as B) | 3.8 | – |
| CCOC[C@H]1C(=O)N[C@@H]([C@@H](C)CC)C(=O)N(C)CC(=O)N(C)[C@H]2C/C=C\CCN(C2=O)[C@@H](Cc2ccc(C)cc2F)C(=O)N(C)CC(=O)N[C@@H](CCc2ccc(C(F)(F)F)c(OC)c2)C(=O)N2C[C@@H](C)C[C@H]2C(=O)NC2(CC(C)(C)C2)C(=O)N(C)[C@@H](C2CCCC2)C(=O)N(C)[C@H](C(=O)N(C)CC)CC(=O)N1C [PP2697] | A (a compound having 10 or more and less than 20 is denoted as A) | A (a compound having 10 or more and less than 20 is denoted as A) | – | 42.8 |
| CCOC[C@H]1C(=O)N[C@@H]([C@@H](C)CC)C(=O)N(C)CC(=O)N(C)[C@H]2C/C=C\CCN(C2=O)[C@@H](Cc2ccc(C)c(F)c2)C(=O)N(C)CC(=O)N[C@@H](CCc2ccc(C(F)(F)F)c(OC)c2)C(=O)N2C[C@@H](C)C[C@H]2C(=O)NC2(CC(C)(C)C2)C(=O)N(C)[C@@H](C2CCCC2)C(=O)N(C)[C@H](C(=O)N(C)CC)CC(=O)N1C [PP2698] | A (a compound having 10 or more and less than 20 is denoted as A) | A (a compound having 10 or more and less than 20 is denoted as A) | – | 30.4 |
| CCOC[C@H]1C(=O)N[C@@H]([C@@H](C)CC)C(=O)N(C)CC(=O)N(C)[C@H]2C/C=C\CCN(C2=O)[C@@H](Cc2ccc(C(C)(F)F)cc2)C(=O)N(C)CC(=O)N[C@@H](CCc2ccc(C(F)(F)F)c(OC)c2)C(=O)N2C[C@@H](C)C[C@H]2C(=O)NC2(CC(C)(C)C2)C(=O)N(C)[C@@H](C2CCCC2)C(=O)N(C)[C@H](C(=O)N(C)CC)CC(=O)N1C [PP2699] | A (a compound having 10 or more and less than 20 is denoted as A) | B (a compound having 3 or more and less than 10 is denoted as B) | – | 14.2 |
| CCOC[C@H]1C(=O)N[C@@H]([C@@H](C)CC)C(=O)N(C)CC(=O)N(C)[C@H]2C/C=C\CCN(C2=O)[C@@H](Cc2ccc(C3CC3)cc2)C(=O)N(C)CC(=O)N[C@@H](CCc2ccc(C(F)(F)F)c(OC)c2)C(=O)N2C[C@@H](C)C[C@H]2C(=O)NC2(CC(C)(C)C2)C(=O)N(C)[C@@H](C2CCCC2)C(=O)N(C)[C@H](C(=O)N(C)CC)CC(=O)N1C [PP2700] | A (a compound having 10 or more and less than 20 is denoted as A) | B (a compound having 3 or more and less than 10 is denoted as B) | – | 23.1 |
| CCOC[C@H]1C(=O)N[C@@H]([C@@H](C)CC)C(=O)N(C)CC(=O)N(C)[C@H]2C/C=C\CCN(C2=O)[C@@H](Cc2ccc(C(C)C)cc2)C(=O)N(C)CC(=O)N[C@@H](CCc2ccc(C(F)(F)F)c(OC)c2)C(=O)N2C[C@@H](C)C[C@H]2C(=O)NC2(CC(C)(C)C2)C(=O)N(C)[C@@H](C2CCCC2)C(=O)N(C)[C@H](C(=O)N(C)CC)CC(=O)N1C [PP2701] | A (a compound having 10 or more and less than 20 is denoted as A) | A (a compound having 10 or more and less than 20 is denoted as A) | – | 21.7 |
| CCOC[C@H]1C(=O)N[C@@H]([C@@H](C)CC)C(=O)N(C)CC(=O)N(C)[C@H]2C/C=C\CCN(C2=O)[C@@H](Cc2ccc(OC)cc2)C(=O)N(C)CC(=O)N[C@@H](CCc2ccc(C(F)(F)F)c(OC)c2)C(=O)N2C[C@@H](C)C[C@H]2C(=O)NC2(CC(C)(C)C2)C(=O)N(C)[C@@H](C2CCCC2)C(=O)N(C)[C@H](C(=O)N(C)CC)CC(=O)N1C [PP2702] | A (a compound having 10 or more and less than 20 is denoted as A) | B (a compound having 3 or more and less than 10 is denoted as B) | – | 21.4 |
| CCOC[C@H]1C(=O)N[C@@H]([C@@H](C)CC)C(=O)N(C)CC(=O)N(C)[C@H]2C/C=C\CCN(C2=O)[C@@H](Cc2ccc(C(C)=O)cc2)C(=O)N(C)CC(=O)N[C@@H](CCc2ccc(C(F)(F)F)c(OC)c2)C(=O)N2C[C@@H](C)C[C@H]2C(=O)NC2(CC(C)(C)C2)C(=O)N(C)[C@@H](C2CCCC2)C(=O)N(C)[C@H](C(=O)N(C)CC)CC(=O)N1C [PP2703] | AA (a compound having 20 or more is denoted as AA) | A (a compound having 10 or more and less than 20 is denoted as A) | – | 80.5 |
| CCOC[C@H]1C(=O)N[C@@H]([C@@H](C)CC)C(=O)N(C)CC(=O)N(C)[C@H]2C/C=C\CCN(C2=O)[C@@H](Cc2ccc3c(c2)CCC3(F)F)C(=O)N(C)CC(=O)N[C@@H](CCc2ccc(C(F)(F)F)c(OC)c2)C(=O)N2C[C@@H](C)C[C@H]2C(=O)NC2(CC(C)(C)C2)C(=O)N(C)[C@@H](C2CCCC2)C(=O)N(C)[C@H](C(=O)N(C)CC)CC(=O)N1C [PP2704] | B (a compound having 3 or more and less than 10 is denoted as B) | B (a compound having 3 or more and less than 10 is denoted as B) | – | 10.7 |
| CCO[C@@H]1C[C@H]2C(=O)NC3(CC(C)(C)C3)C(=O)N(C)[C@@H](CC3CCC3)C(=O)N(C)[C@H](C(=O)N(C)C)CC(=O)N(C)[C@@H](COC)C(=O)N[C@@H]([C@@H](C)CC)C(=O)N(C3CC3)CC(=O)N(C)[C@H]3C/C=C\CCN(C3=O)[C@@H](Cc3ccc(C(F)(F)F)cc3)C(=O)N(C)CC(=O)N[C@@H](CCc3cc(F)c(C(F)(F)F)c(F)c3)C(=O)N2C1 [PP2769] | AA (a compound having 20 or more is denoted as AA) | A (a compound having 10 or more and less than 20 is denoted as A) | 133 | – |
| CCC[C@H]1C(=O)N[C@@H]([C@@H](C)CC)C(=O)N(C2CC2)CC(=O)N(C)[C@H]2C/C=C\CCN(C2=O)[C@@H](Cc2ccc(C(F)(F)F)cc2)C(=O)N(C)CC(=O)N[C@@H](CCc2ccc(C(F)(F)F)c(OC)c2)C(=O)N2C[C@H](OCC)C[C@H]2C(=O)NC2(CC(C)(C)C2)C(=O)N(C)[C@@H](CC2CCC2)C(=O)N(C)[C@H](C(=O)N(C)C)CC(=O)N1C [PP2770] | A (a compound having 10 or more and less than 20 is denoted as A) | A (a compound having 10 or more and less than 20 is denoted as A) | 137 | – |
| CCO[C@@H]1C[C@H]2C(=O)NC3(CC(C)(C)C3)C(=O)N(C)[C@@H](CC3CCC3)C(=O)N(C)[C@H](C(=O)N(C)C)CC(=O)N(C)[C@@H](COC)C(=O)N[C@@H]([C@@H](C)CC)C(=O)N(C3CC3)CC(=O)N(C)[C@H]3C/C=C\CCN(C3=O)[C@@H](Cc3ccc(C(F)(F)F)cc3)C(=O)N(C)CC(=O)N[C@@H](CCc3ccc(C(F)(F)F)c(OC)c3)C(=O)N2C1 [PP2771] | AA (a compound having 20 or more is denoted as AA) | A (a compound having 10 or more and less than 20 is denoted as A) | 148 | – |
| CCO[C@@H]1C[C@H]2C(=O)NC3(CCC3)C(=O)N(C)[C@@H](CC(C)(C)C)C(=O)N(C)[C@H](C(=O)N3CCCC3)CC(=O)N(C)[C@@H](CC)C(=O)N[C@@H]([C@@H](C)CC)C(=O)N(C)CC(=O)N(C)[C@H]3C/C=C\CCN(C3=O)[C@@H](CC3CCCCC3)C(=O)N(C)CC(=O)N[C@@H](CCc3cc(F)c(C(F)(F)F)c(F)c3)C(=O)N2C1 [PP2772] | B (a compound having 3 or more and less than 10 is denoted as B) | B (a compound having 3 or more and less than 10 is denoted as B) | 28.1 | – |
| CCO[C@@H]1C[C@H]2C(=O)NC3(CC(C)(C)C3)C(=O)N(C)[C@@H](CC(C)(C)C)C(=O)N(C)[C@H](C(=O)N(C)C)CC(=O)N(C)[C@@H](C(C)C)C(=O)N[C@@H]([C@@H](C)CC)C(=O)N(C)CC(=O)N(C)[C@H]3C/C=C\CCN(C3=O)[C@@H](Cc3ccc(C(F)(F)F)cc3)C(=O)N(C)CC(=O)N[C@@H](CCc3ccc(C(F)(F)F)c(OC)c3)C(=O)N2C1 [PP2773] | B (a compound having 3 or more and less than 10 is denoted as B) | B (a compound having 3 or more and less than 10 is denoted as B) | 8.6 | – |
